How the values were obtained:
HIV-1 integrase = molecular target: T1, HIV-1 integrase (Human immunodeficiency virus type 1 group M subtype B, UniProt P04585); assay: In vitro integrase assay; assay type: biochemical; details: 10 µM
T1 construct: purchased XpressBio
Description: (§1) Fig 5 (A) Time-of-addition assay. […] Subsequently, the cells were treated with the compounds at the indicated time points (0, 1, 2, 4, 6, 8, 10, 12, 24, 30, 36, 42, and 48 h) after HIV-1 infection. The final concentrations of compounds are described in Materials and Methods. Viral activity according to the timing of drug addition was measured as F-Luc activity at 54 h after infection. The relative activities are represented as the mean ± SD (n = 3) compared with the activity observed 54 h post-infection. The relative time frames associated with each HIV-1 infection step are defined based on the time frame of susceptibility to the drug that blocks that particular infection step. […] At 16 h after infection, the viral reverse transcription (RT) product (viral cDNA) level was determined by quantitative real-time PCR (RT-qPCR) using gag and 18S rRNA primer sets and represented as the mean ± SD (n = 3) normalized against the amount of the 18S rRNA compared with the DMSO control. **P < 0.01 compared with the vehicle (DMSO). […] At 40 h after infection, cellular chromosomal DNA was purified, and the integrated proviral DNA was detected through nested Alu-PCR amplification.
(§2) The activity of HIV-1 RT was determined as previously described with some minor modifications ([66][–][68]). […] The relative levels of RT products were analyzed using the ΔΔCt-method, as described above. […]

[1] = tested on: reverse transcription of the infected virus; assay: Viral reverse transcription product (viral cDNA) in infected A3.01 cells, RT-qPCR; assay type: cell-based, HIV-1; details: 1.5 µM, 16 h after infection
Description: as §1, §2

Tat protein = assay: Nuclear localization of Tat protein, cell fractionation and western blotting; assay type: cell-based, HIV-1; details: 1.5 μM, transfected cells
HIV-1 transcripts = assay: RNA-seq of HIV-1 transcripts in infected TZM-bl cells; assay type: cell-based; details: HIV-1NL4-3 MOI 1, 1.5 µM, 2 days
Description: At 48 h after infection, the total RNA was extracted using the Maxwell RSC simplyRNA Cells Kit (Promega) according to the manufacturer’s instructions. RNA integrity was evaluated as RNA integrity number >6 using the Agilent 2100 Bio-analyzer (Agilent Technologies, Santa Clara, CA, USA). The cDNA libraries were constructed using TruSeq Stranded mRNA Sample Preparation Kit (Illumina, San Diego, CA, USA) according to the manufacturer’s instructions. Subsequently, these cDNA libraries were sequenced on the Illumina sequencing platform (NovaSeq6000; Illumina) and 150 bp paired-end reads were generated. Trimmomatic (v.0.32) was used to eliminate low-quality reads and adapter sequences from the sequencing data ([64]). Subsequently, the filtered reads were aligned to the HIV-1 genome (accession: AF324493.2) using STAR (v.2.3.0) ([65]). RT-qPCR analyses were performed as previously described ([66]) with some minor modifications. […] After infection, the infected cells were treated with 1.5 µM of the compounds. Forty-eight hours after treatment, the viral mRNA was isolated, converted to cDNA, and quantified through RT-qPCR on a 7500 Real-Time PCR System (Applied Biosystems) using the Power SYBR Green PCR Master Mix (Applied Biosystems). The comparative cycle threshold (Ct) method was used to analyze relative changes (Δ) in gene expression. The ΔCt values were determined using a 7500 Real-Time PCR System Software (Applied Biosystems) normalizing with gapdh, and the gene expression was calculated using the ΔΔCt-method. The primers used in this assay are the following: gag forward, 5′-[…]-3′, gag reverse, 5′-[…]-3′; gapdh forward, 5′-[…]-3′, gapdh reverse, 5′-[…]-3′.

Cc1[nH]c2ccc(-c3nnc(SCC(=O)N4CCCC4)o3)cc2c1C [Compound 13, 2-((5-(2,3-Dimethyl-1H-indol-5-yl)-1,3,4-oxadiazol-2-yl)thio)-1-(pyrrolidin-1-yl)ethan-1-one]
inhibitory effect on in vitro integrase activity (HIV-1 integrase): did not exhibit the inhibitory effect | inhibitory effect on reverse transcription of the infected virus [1]: did not exhibit the inhibitory effect | change in nuclear localization of the Tat protein (Tat protein): no changes were observed | read counts of transcripts mapped to the HIV-1 genome (HIV-1 transcripts): substantially reduced

Cc1[nH]c2ccc(-c3nnc(SCC(=O)N4CCCCC4)o3)cc2c1C [Compound 9, 2-((5-(2,3-Dimethyl-1H-indol-5-yl)-1,3,4-oxadiazol-2-yl)thio)-1-(piperidin-1-yl)ethan-1-one]
inhibitory effect on in vitro integrase activity (HIV-1 integrase): did not exhibit the inhibitory effect | inhibitory effect on reverse transcription of the infected virus [1]: did not exhibit the inhibitory effect | change in nuclear localization of the Tat protein (Tat protein): no changes were observed | read counts of transcripts mapped to the HIV-1 genome (HIV-1 transcripts): substantially reduced

— PMC11459959, “Discovery of new acetamide derivatives of 5-indole-1,3,4-oxadiazol-2-thiol as inhibitors of HIV-1 Tat-mediated viral transcription” (Antimicrobial Agents and Chemotherapy, 2024)
